The record followed here is PMC11187126, “Structure and dynamics of the pyroglutamylated RF-amide peptide QRFP receptor GPR103” (Nature Communications, 2024).

Where two headings read alike, the source gives them in different places. No end group written: not given here.

In the assay the target is T1, GPR103 F11N-termA (Homo sapiens, UniProt Q96P65, F11A).
T1 construct: we used human full-length QRFPR-encoding plasmids; expressed in transfected cells; host or cells: HEK293 cells, pCAGGS vector
T1 sequence (Q96P65 1-431 F11A): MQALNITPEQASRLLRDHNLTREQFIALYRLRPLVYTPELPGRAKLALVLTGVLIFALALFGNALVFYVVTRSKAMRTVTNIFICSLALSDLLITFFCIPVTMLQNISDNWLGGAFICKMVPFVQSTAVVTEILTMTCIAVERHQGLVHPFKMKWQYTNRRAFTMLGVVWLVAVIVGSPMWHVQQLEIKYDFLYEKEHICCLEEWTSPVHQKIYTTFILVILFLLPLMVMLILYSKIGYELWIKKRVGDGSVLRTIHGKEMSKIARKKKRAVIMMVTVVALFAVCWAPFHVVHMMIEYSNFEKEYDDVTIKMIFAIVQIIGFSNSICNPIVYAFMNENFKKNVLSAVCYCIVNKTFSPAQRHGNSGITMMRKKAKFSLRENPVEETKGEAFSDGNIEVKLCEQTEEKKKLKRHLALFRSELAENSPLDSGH
Nature of the assay: TGFα shedding assay; Exp. level WT (1:10). It is filed as cell-based. As for the experimental part: For the TGFα shedding assay and the flow cytometry analysis, we used human full-length QRFPR-encoding plasmids. Specifically, GPR103 was N-terminally modified with an HA signal sequence followed by a FLAG epitope and then a flexible linker ([…]; the FLAG epitope is underlined) and inserted into the pCAGGS vector. Plasmid encoding GPR103 mutants were generated using Quickchange Site-Directed Mutagensis kit (Agilent).
The TGFα shedding assay was performed as described previously with minor modifications. Plasmid transfection was performed in a 6-well plate with a mixture of 500 ng (per well in a 6-well plate) AP-TGFα-encoding plasmid and 200 ng GPR103-encoding plasmid. After 1-day culture, the transfected cells were harvested by trypsinization, pelleted by centrifugation at 190 × g for 5 min, and washed once with 5 mM HEPES (pH 7.4)-containing Hank’s Balanced Salt Solution (HBSS). After centrifugation, the cells were resuspended in 8 mL of the HEPES-containing HBSS. The cell suspension was seeded in a 96-well culture plate (cell plate) at a volume of 90 μL (per well hereafter) and incubated in a 37 °C incubator with 5% CO2 for 30 min. […] After spinning the cell plates at 190 × g for 2 min, 80 μL of conditioned media was transferred to an empty 96-well plate (conditioned media (CM) plate). Then, 80 μL of AP reaction solution (10 mM p-nitrophenylphosphate (p-NPP), 120 mM Tris-HCl (pH 9.5), 40 mM NaCl, and 10 mM MgCl2) was dispensed into the cell plates and the CM plates. Absorbance at 405 nm of the plates was measured using a microplate reader (SpectraMax 340 PC384, Molecular Devices) before and after 1-h incubation at room temperature. Ligand-induced AP-TGFα release was calculated by subtracting spontaneous AP-TGFα release signal from ligand-induced AP-TGFα release signal. The AP-TGFα release signals were fitted to a four-parameter sigmoidal concentration–response curve, using the Prism 10 software (GraphPad Prism). For each replicate experiment, the pEC50 parameter (negative logarithmic values of EC50 values) of the individual GPR103 mutants were normalized to that of the wild-type GPR103 performed in parallel, and resulting ∆pEC50 values were used to denote ligand response activity of the mutants. […]
Exp. le vel: WT (1:5 0)Exp. le vel: WT (1:5 0)Exp. le vel: WT (1:5 0)Exp. le vel: WT (1:2 0)Exp. le vel: WT (1:2 0)Exp. le vel: WT (1:1 0) […]
L1 4N - t e r mA F2 5N - t e r mA I 2 6N - t e r mA Y 2 9N - t e r mA C 9 82 .5 7A T10 22 .6 1A Exp . l eve l: WT (1 :5)Exp . l evel : >WT (1 :1)Exp. le vel: WT (1:2 0)Exp. le vel: WT (1:2 0)Exp. le vel: WT (1:5 0)Exp . l eve l: WT (1 :1) […]
Exp. le vel: WT (1:1 0)Exp. le vel: WT (1:2 0) C 1 1 83 .2 5AExp. le vel: WT (1:5 0)Exp. le vel: WT (1:5 0)Exp. le vel: WT (1:2 0)Exp . l eve l: WT (1 :5) […]
Exp. le vel: WT (1:5 0)Exp. le vel: WT (1:1 0)Exp. le vel: WT (1:5 0) E203ECL2AExp . l evel : >WT (1 :1)Exp. le vel: WT (1:5 0)Exp. le vel: WT (1:5 0) […]
Exp . l eve l: WT (1 :1) F28Exp. le vel: WT (1:5 0) C 2 8 56 .4 7AExp. le vel: WT (1:2 0) WExp. le vel: WT (1:2 0) F28Exp. le vel: WT (1:5 0)Exp . l evel : >WT (1 :1) […]
Exp. le vel: WT (1:5 0)Exp. le vel: WT (1:5 0) C 3 2 77 .4 8AExp . l eve l: WT (1 :5)Exp . l evel : >WT (1 :1)Exp . l evel : >WT (1 :1) […]
Suppl eme nt ary Figure 1 | Mutational analysis of GPR103. […]
mutants. Data are presented as mean values ± SEM, normally n=3-5; dots), each performed in triplicate. b-d Cell-surface expression (b) and QRFP26-in-duced activation of GPR103 (c, d) were analyzed by the flow cytometry and the TGFα shedding assay, respectively. From the concentration–response curves (a), Emax (c) and ΔpEC50 (d) values relative to the wild type were calculated. Colors in the mutant bars indicate an expression level matching to that of titrated wild type. Statistical analyses were performed using the ordinary one-way ANOVA followed by Dunnett tests with the expression-matched […]

As for TSGPLGNLAEELNGYSRKKGGFSFRF-NH2 [QRFP26], the Emax (Exp. #1) is given as 103.83 % WT; the Emax (Exp. #2) was 92.88 % WT; the Emax (Exp. #3) turned out to be 104.15 % WT; the Emax (mean, read-out: Emax) amounted to 100%; the Emax (n = 3, read-out: Emax) was determined as 104 ± 3%. This substance also gave an EC50 (n = 3) of 0.178 µM.

As a reminder, the EC50 is the concentration giving half of the maximal effect. Read a high EC50 as weaker potency.
